Key:
hERG potassium channel = target: T1, hERG potassium channel (Homo sapiens, UniProt Q12809); test: hERG potassium channel inhibitory activity test (Qpatch, CHO-hERG cells); format: cell-based; settings: highest test concentration 40 μM, read-out: hERG (μM), inhibition at multiple concentrations on hERG current
T1 construct: expressed in transfected cells; host or cells: CHO-hERG cells
Experimental: 7.1.1 CHO-hERG cells were cultured in a 175 cm^2 flask, when the cell density reached 60-80%, the culture medium was removed, the cells were washed with 7 mL PBS, and then digested with 3 mL Detachin. 7.1.2 After complete digestion, 7 mL culture medium was added to neutralize, then the mixture was centrifuged, the supernatant was aspirated, and then 5 mL culture medium was added to re-suspend, ensuring 2-5×10^6/mL of cell density.
The process of single cell high impedance sealing and whole cell mode formation were all automatically completed by Qpatch instrument, after obtaining the whole cell recording mode, the cells were clamped at −80 mV, before giving a 5-second +40 mV depolarization stimulus, a 50 millisecond −50 mV prevoltage was given first, and then repolarized to −50 mV for 5 seconds, then returned to −80 mV. This voltage stimulation was applied every 15 seconds and recorded for 2 minutes before giving extracellular fluid recordings for 5 minutes, and then the administration process was started, the compound concentration was given from the lowest test concentration, each test concentration was given for 2.5 minutes, and the positive control compound 3 μM of Cisapride was given after all concentrations were continuously given. At least 3 cells (n≥3) were tested at each concentration.
7.4.1 20 mM of compound mother liquor was diluted with extracellular fluid, 5 μL of 20 mM compound mother liquor was added into 2495 μL of extracellular fluid and diluted 500-fold to 40 μM, and then the final concentration to be tested was obtained by sequential 3-fold serial dilutions in extracellular solution containing 0.2% DMSO. 7.4.2 The highest test concentration was 40 μM, in a total of 6 concentrations of 40, 13.33, 4.44, 1.48, 0.49 and 0.16 μM respectively. 7.4.3 The content of DMSO in the final test concentration was not more than 0.2%, and this concentration of DMSO had no effect on hERG potassium channel.
The experimental data were analyzed by XLFit software. […]

[1] = Plasma stability, rat plasma; format: in vitro ADME; settings: rat plasma, 37° C.
Procedure, shortened: (§1)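 Compound from a 10 μM working solution in 100 mM phosphate buffer was incubated at 37°C in anticoagulated plasma from each species, with propantheline as positive control. Aliquots taken at 0, 15, 30, 60, 90 and 120 min were quenched in acetonitrile with internal standard. Remaining compound was quantified by LC-MS/MS (positive ESI, MRM).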

[2] = Plasma stability, mouse plasma; format: in vitro ADME
Procedure, shortened: as §1

CYP450 2D6 = target: T2, CYP450 2D6 (Homo sapiens, UniProt P10635); test: CYP enzyme single point inhibition test, human liver microsomes, 2D6; format: in vitro ADME; settings: single point method
T2 construct: from tissue; host or cells: human liver microsomes
T2 sequence (P10635 whole entry): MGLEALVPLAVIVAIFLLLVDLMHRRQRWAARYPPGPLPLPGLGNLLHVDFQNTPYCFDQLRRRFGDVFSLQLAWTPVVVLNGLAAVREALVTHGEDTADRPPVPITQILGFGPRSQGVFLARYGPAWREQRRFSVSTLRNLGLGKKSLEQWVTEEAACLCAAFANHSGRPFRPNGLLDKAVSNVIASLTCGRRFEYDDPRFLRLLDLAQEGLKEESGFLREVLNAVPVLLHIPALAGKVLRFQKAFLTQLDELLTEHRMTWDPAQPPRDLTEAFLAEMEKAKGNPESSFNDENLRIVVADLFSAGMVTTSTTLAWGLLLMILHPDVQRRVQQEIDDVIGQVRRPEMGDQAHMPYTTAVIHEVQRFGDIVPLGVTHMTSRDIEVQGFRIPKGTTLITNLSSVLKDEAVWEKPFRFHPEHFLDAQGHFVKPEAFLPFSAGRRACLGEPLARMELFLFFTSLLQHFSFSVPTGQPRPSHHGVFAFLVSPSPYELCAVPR
Experimental: Using human liver microsomal incubation system, the inhibition of CYP450 enzyme subtypes by compounds was rapidly predicted by single point method.
2.5 mM NADPH: 100 mM phosphate buffer was added to 4.165 mg of NADPH (reduced nicotinamide adenine dinucleotide phosphate) to 2 mL. 0.25 mg/mL microsome: 4 mL of 100 mM phosphate buffer was added to 50 μL of 20 mg/mL microsome and mixed well.
The embodiment compound to be tested was weighed and diluted to 10 mM with DMSO and then diluted to 100 µM with 100 mM phosphate buffer.
• 1. In a 96-well plate, 40 μL of liver microsomes, 10 μL of substrate, 10 μL of compound to be tested were pre-incubated for 3 min. • 2. 40 μL of NADPH was added. • 3. 300 μL of acetonitrile termination solution containing internal standard was added at 20 min. • 4. Centrifugal injection.

T1 sequence (Q12809 whole entry): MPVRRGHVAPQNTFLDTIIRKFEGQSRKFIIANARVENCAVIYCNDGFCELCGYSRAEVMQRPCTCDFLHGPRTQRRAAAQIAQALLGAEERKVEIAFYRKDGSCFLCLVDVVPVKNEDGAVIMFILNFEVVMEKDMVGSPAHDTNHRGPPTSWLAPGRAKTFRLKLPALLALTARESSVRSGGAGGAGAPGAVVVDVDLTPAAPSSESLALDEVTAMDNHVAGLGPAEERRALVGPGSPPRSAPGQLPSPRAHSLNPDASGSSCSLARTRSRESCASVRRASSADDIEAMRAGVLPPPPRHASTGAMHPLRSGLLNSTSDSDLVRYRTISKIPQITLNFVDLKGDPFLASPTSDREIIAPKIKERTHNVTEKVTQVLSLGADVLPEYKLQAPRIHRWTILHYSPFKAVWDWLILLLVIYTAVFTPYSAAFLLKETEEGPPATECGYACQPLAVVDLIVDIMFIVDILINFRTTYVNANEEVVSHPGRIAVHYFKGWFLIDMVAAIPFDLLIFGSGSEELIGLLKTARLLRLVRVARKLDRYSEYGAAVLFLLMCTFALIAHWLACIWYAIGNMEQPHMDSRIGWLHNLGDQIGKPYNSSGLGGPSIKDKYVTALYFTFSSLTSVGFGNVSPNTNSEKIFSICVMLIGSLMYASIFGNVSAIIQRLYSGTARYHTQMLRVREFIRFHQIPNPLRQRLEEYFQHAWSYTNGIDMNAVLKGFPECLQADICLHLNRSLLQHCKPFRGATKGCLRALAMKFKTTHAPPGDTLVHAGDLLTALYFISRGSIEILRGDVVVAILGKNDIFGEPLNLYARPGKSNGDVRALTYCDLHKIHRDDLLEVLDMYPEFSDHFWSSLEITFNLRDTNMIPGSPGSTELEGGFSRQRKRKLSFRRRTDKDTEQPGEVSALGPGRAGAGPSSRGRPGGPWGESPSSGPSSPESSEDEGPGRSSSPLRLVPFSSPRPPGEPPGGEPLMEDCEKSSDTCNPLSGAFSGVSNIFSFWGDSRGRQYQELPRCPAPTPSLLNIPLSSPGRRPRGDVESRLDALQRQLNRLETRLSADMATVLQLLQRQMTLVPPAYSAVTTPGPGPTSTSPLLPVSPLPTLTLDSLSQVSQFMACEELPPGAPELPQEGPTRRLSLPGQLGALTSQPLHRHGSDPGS

Row | Compound | IC50 (hERG potassium channel) [µM] | Residual rate (%) 0 min [1] [%] | Residual rate (%) 15 min [1] [%] | Residual rate (%) 30 min [1] [%] | Residual rate (%) 60 min [1] [%] | Residual rate (%) 120 min [1] [%] | Residual rate (%) 0 min ([2]; mouse plasma, 37° C.) [%] | Residual rate (%) 15 min ([2]; mouse plasma, 37° C.) [%] | Residual rate (%) 30 min ([2]; mouse plasma, 37° C.) [%] | Residual rate (%) 60 min ([2]; mouse plasma, 37° C.) [%] | Residual rate (%) 120 min ([2]; mouse plasma, 37° C.) [%] | IC50 (CYP450 2D6) [µM] | Residual rate (%) 0 min ([2]; mouse, 0.5 μM) [%] | Residual rate (%) 15 min ([2]; mouse, 0.5 μM) [%] | Residual rate (%) 30 min ([2]; mouse, 0.5 μM) [%] | Residual rate (%) 60 min ([2]; mouse, 0.5 μM) [%] | Residual rate (%) 120 min ([2]; mouse, 0.5 μM) [%]
1 | P-4-((2S,5R)-4-acryloyl-2,5-dimethylpiperazin-1-yl)-6-fluoro-7-(2-fluoro-6-hydroxyphenyl)-1-(2-isopropyl-4-(methylthio)pyridin-3-yl)pyrido[2,3-d]pyrimidin-2(1H)-one [Embodiment 2-1] | > 30 | 100.00 | 99.04 | 101.03 | 97.16 | 84.63 | 100.00 | 102.67 | 98.51 | 95.49 | 84.58 | > 100 |  |  |  |  | 
2 | C=CC(=O)N1C[C@H](C)N(c2nc(=O)n(-c3c(SC)ccnc3C(C)C)c3nc(-c4c(N)ccc(Cl)c4F)c(Cl)cc23)C[C@H]1C (atropisomer, axis not shown) [Embodiment 13-1, P-4-((2S,5R)-4-Acryloyl-2,5-dimethylpiperazin-1-yl)-7-(6-amino-3-chloro-2-fluorophenyl)-6-chloro-1-(2-isopropyl-4-(methylthio)pyridin-3-yl)pyrido[2,3-d]pyrimidin-2(1H)-one] | > 30 | 100.00 | 95.57 | 96.73 | 93.97 | 91.93 |  |  |  |  |  | 21.2 | 100.00 | 100.58 | 99.52 | 99.64 | 92.32

From patent US20240325394A1, “SALT AND CRYSTAL FORM OF NITROGEN-CONTAINING HETEROCYCLIC DERIVATIVE, PREPARATION METHOD THEREFOR AND APPLICATION THEREOF” (SHANGHAI HANSOH BIOMEDICAL CO., LTD., priority 2020, published 2024)
